Source: US9062093B2, “Peptide compositions and methods for treating patients” (THE REGENTS OF THE UNIVERSITY OF MICHIGAN, priority 2011, dated 2015)

System: C57BL/6J mice
Assay: Blood glucose after oral load of glucose together with amino acid or peptide
Assay type: in vivo
Settings: for Blood glucose levels in mice loaded with glucose: non-diabetic mice, glucose 2 mg/g bw and peptide 1 mg/g bw orally
Description: An experiment was performed in adult male C57BL/6J mice purchased from Jackson Lab (Bar Harbor, Me.). Fasted mice were given glucose (2 mg/g body weight, diamond line in FIG. 1, n=10) or glycine (0.35 mg/g bw, square line in FIG. 1, n=10) and glucose by gavaging. Blood glucose was measured at 0, 30, 60, 90, and 120 min after giving glucose.
An experiment was performed in adult male C57BL/6J mice purchased from Jackson Lab. In the control group (diamond line in FIG. 13, n=10), glucose was orally administered at dose of 2 mg/g bw. In the Diapin and LLG group (square line or triangle line, n=9), glucose and Diapin or glucose and LLG were orally administered at dose of 2 mg/g bw and 1 mg/g bw, respectively. Blood glucose was measured at 0, 30, 60, 90 and 120 min after gavaging glucose and Diapin.
An experiment was performed in adult male C57BL/6J mice purchased from Jackson Lab. In the control group (diamond line in FIG. 14, n=10), glucose was orally administered at dose of 2 mg/g bw. […] Blood glucose was measured at 0, 30, 60, 90 and 120 min after gavaging glucose and GLG or GLL.
An experiment was performed in adult male C57BL/6J mice purchased from Jackson Lab. […] Blood glucose was measured at 0, 0.5, 1, 1.5 and 2 hours after gavaging glucose, Diapin and amidated Diapin.
An experiment was performed in adult male C57BL/6J mice purchased from Jackson Lab. […] Blood glucose was measured at 0, 0.5, 1, 1.5 and 2 hours after gavaging glucose, Diapin, and acetylated Diapin.
An experiment was performed in adult male C57BL/6J mice purchased from Jackson Lab. […] Blood glucose was measured at 0, 0.5, 1, 1.5 and 2 hours after gavaging glucose, Diapin and amidated/acetylated Diapin.
(§1) An experiment was performed in adult male C57BL/6J mice purchased from Jackson Lab. […] Blood glucose was measured at 30, 60, 90 and 120 min after giving glucose. […]
as §1

| Compound | Blood glucose levels compared to the control group (glycine 0.35 mg/g bw and glucose 2 mg/g bw by gavage, fasted mice, any time point (0, 30, 60, 90, 120 min)) | Blood glucose levels in mice loaded with glucose |
| --- | --- | --- |
| NCC(=O)O [glycine, reference compound] | not significantly changed |  |
| Glycine-Leucine-Leucine [GLL] |  | significantly reduce blood glucose levels |
| Leucine-Leucine-Glycine [LLG] |  | significantly reduce blood glucose levels |
